Measurements from patent publication US20100324137A1, “LAURIC ARGINATE AS A CONTACT ANTIMICROBIAL” (DIVERSEY, INC., priority 2009, published 2010).
“And” between values parts separate entries of the source, which are not always exact repeats. Equal values may be shown once.

Tested on: E. coli
Assay: Antimicrobial effectiveness: E. coli contacted with sample for 30 seconds, survivors calculated
Type: cell-based
Conditions: 30 seconds contact
Method: The antimicrobial effectiveness of the present invention in combination with octenyl succinic acid was tested. In this application, the test organism was E. coli, which was contacted with either the control or the stated sample for 30 seconds, and the survivors were calculated.

Compound | Percent Reduction (25 ppm active) | Survivors (25 ppm active) | Percent Reduction (50 ppm active) | Percent Reduction (75 ppm active) | Survivors (75 ppm active) | Percent Reduction (160 ppm active) | Survivors (160 ppm active) | Percent Reduction (320 ppm active) | Survivors (320 ppm active) | Percent Reduction (480 ppm active) | Survivors (480 ppm active)
CCCCCCCCCCCC(=O)N[C@@H](CCCN=C(N)N)C(=O)OCC [LA, ethyl lauroyl arginate] | 96.494% and 96.299% | 5,400,000 org/ml and 5,700,000 org/ml | 99.851% and 99.926% | 99.979% and 99.975% | 33,000 org/ml and 39,000 org/ml | – | – | – | – | – | –
octenyl succinic acid [OSA] | – | – | – | – | – | 84.351% and 84.805% | 24,100,000 org/ml and 23,400,000 org/ml | 99.999% | 2,000 org/ml and 2,200 org/ml | 99.999% | 1,900 org/ml and 1,920 org/ml
